Tested on: AP-1 induced transcriptional activity
Assay: Cellular Transrepressional Assay (AP-1 luciferase reporter, PMA-activated A549 cells)
Type: cell-based
Conditions: for AP-1 Max % inh (Cellular Transrepression Assay) / Emax: maximum inhibition; for Emax: A549, 7 h, read-out: AP-1 Max % inh (Cellular Transrepression Assay)
Procedure: Cellular Transrepressional Assay
To measure the ability of test molecules to inhibit AP-1 induced transcriptional activity we utilized an A549 cell which was stably transfected with a plasmid containing 7× AP-1 DNA binding sites (pAP-1-Luc plasmid, Stratagene Co. La Jolla, Calif.) followed by the gene for luciferase. Cells were activated with 10 ng/ml of […] (PMA) plus or minus test molecules for 7 hours. After 7 hours a luciferase reagent was added to measure luciferase enzymatic activity in the cell. After a 10 minute incubation of luciferase reagent with cells, luminescence was measured in a TopCount luminescence counter. Repression of AP-1 activity was calculated as the percentage decrease in the signal induced by PMA alone. Test molecules were analyzed in the concentration range from 0.1 nM to 40 μM. EC50s were determined by using standard curve fitting methods such as Excel fit (Microsoft Co.).

[1] = Homo sapiens, Cellular Transrepression Assay
[2] = Homo sapiens, A549, Cellular Transrepression Assay

| SMILES | EC50 (Cellular Transrepression Assay) [nM] | AP-1 Max % inh (Cellular Transrepression Assay) (Cellular Transrepression Assay) [%] | Emax [1] [%] | EC50 [2] [nM] |
| --- | --- | --- | --- | --- |
| CC(C)(C(=O)Nc1nncs1)C1c2ccccc2Oc2nc(-c3ccc(C(F)(F)F)cc3)ccc21 (centres unmarked) [Example 182] | 109 | 33.12 |  |  |
| CC(C)(C(=O)Nc1nncs1)C1c2ccccc2Oc2nc(-c3ccc(O)cc3)ccc21 (centres unmarked) [Example 191] | 22.6 | 37.51 |  |  |
| CC(C)(C(=O)Nc1nncs1)C1c2ccccc2Oc2nc(-c3ccc(Oc4ccccc4)cc3)ccc21 (centres unmarked) [Example 198] | 22.2 | 34.38 |  |  |
| CSc1ccc(-c2ccc3c(n2)Oc2ccccc2C3C(C)(C)C(=O)Nc2nncs2)cc1 (centres unmarked) [Example 199] | 27.6 | 48.94 |  |  |
| CC(C)(C(=O)Nc1nncs1)C1c2ccccc2Oc2nc(-c3ccc(N)cc3)ccc21 (centres unmarked) [Example 200] | 134 | 53.76 |  |  |
| CC(=O)c1ccc(-c2ccc3c(n2)Oc2ccccc2C3C(C)(C)C(=O)Nc2nncs2)cc1 (centres unmarked) [Example 201] | 36.3 | 65.46 |  |  |
| CC(C)(C(=O)Nc1nncs1)C1c2ccccc2Oc2nc(-c3ccc(OCc4ccccc4)cc3)ccc21 (centres unmarked) [Example 202] | 219 | 38.37 |  |  |
| CCOc1ccc(-c2ccc3c(n2)Oc2ccccc2C3C(C)(C)C(=O)Nc2nncs2)cc1 (centres unmarked) [Example 204] | 42.8 | 44.75 |  |  |
| CCCc1ccc(-c2ccc3c(n2)Oc2ccccc2C3C(C)(C)C(=O)Nc2nncs2)cc1 (centres unmarked) [Example 205] | 8.5 | 57.72 |  |  |
| CCc1ccc(-c2ccc3c(n2)Oc2ccccc2C3C(C)(C)C(=O)Nc2nncs2)cc1 (centres unmarked) [Example 206] | 21.3 | 54.73 |  |  |
| CC(C)(C)c1ccc(-c2ccc3c(n2)Oc2ccccc2C3C(C)(C)C(=O)Nc2nncs2)cc1 (centres unmarked) [Example 207] | 32.6 | 37.96 |  |  |
| CC(C)Cc1ccc(-c2ccc3c(n2)Oc2ccccc2C3C(C)(C)C(=O)Nc2nncs2)cc1 (centres unmarked) [Example 208] | 12.2 | 54.08 |  |  |
| CC(C)Oc1ccc(-c2ccc3c(n2)Oc2ccccc2C3C(C)(C)C(=O)Nc2nncs2)cc1 (centres unmarked) [Example 209] | 14.3 | 50.21 |  |  |
| CCCCOc1ccc(-c2ccc3c(n2)Oc2ccccc2C3C(C)(C)C(=O)Nc2nncs2)cc1 (centres unmarked) [Example 210] | 77.7 | 39.38 |  |  |
| CC(C)Oc1ccc(-c2ccc3c(n2)Oc2ccccc2C3C(C)(C)C(=O)Nc2nncs2)cc1F (centres unmarked) [Example 211] | 41.3 | 49.63 |  |  |
| CCCCc1ccc(-c2ccc3c(n2)Oc2ccccc2C3C(C)(C)C(=O)Nc2nncs2)cc1 (centres unmarked) [Example 212] | 19.6 | 63.05 |  |  |
| CCCOc1ccc(-c2ccc3c(n2)Oc2ccccc2C3C(C)(C)C(=O)Nc2nncs2)cc1 (centres unmarked) [Example 217] | 41 | 45.81 |  |  |
| CC(C)(C(=O)Nc1nncs1)[C@H]1c2ccccc2Oc2nc(-c3ccncc3)ccc21 [Example 219] | 180 | 35.87 |  |  |
| CCCCCc1ccc(-c2ccc3c(n2)Oc2ccccc2C3C(C)(C)C(=O)Nc2nncs2)cc1 (centres unmarked) [Example 220] | 105 | 52.23 |  |  |
| CC(C)(C(=O)Nc1nncs1)[C@H]1c2ccccc2Oc2nc(-c3ccc(C4CCCCC4)cc3)ccc21 [Example 221] | 28.9 | 62.97 |  |  |
| CCCCc1ccc(-c2ccc3c(n2)Oc2ccccc2C3C(C)(C)C(=O)Nc2nncs2)c(C)c1 (centres unmarked) [Example 222] | 100 | 61.88 |  |  |
| CC(C)(C(=O)Nc1nncs1)[C@H]1c2ccccc2Oc2nc(-c3ccc(O)c(F)c3)ccc21 [Example 223] | 839 | 27.87 |  |  |
| CC(C)(C(=O)Nc1nncs1)[C@H]1c2ccccc2Oc2nc(-c3cccc(F)c3)ccc21 [Example 225] | 920 | 45.65 |  |  |
| CCSc1ccc(-c2ccc3c(n2)Oc2ccccc2C3C(C)(C)C(=O)Nc2nncs2)cc1 (centres unmarked) [Example 226] | 18.1 | 49.05 |  |  |
| CCS(=O)(=O)c1ccc(-c2ccc3c(n2)Oc2ccccc2C3C(C)(C)C(=O)Nc2nncs2)cc1 (centres unmarked) [Example 227] | 37.9 | 42.50 |  |  |
| CC(C)S(=O)(=O)c1ccc(-c2ccc3c(n2)Oc2ccccc2C3C(C)(C)C(=O)Nc2nncs2)cc1 (centres unmarked) [Example 228] | 51.5 | 28.32 |  |  |

| SMILES | EC50 (Cellular Transrepression Assay) [nM] | AP-1 Max % inh (Cellular Transrepression Assay) (Cellular Transrepression Assay) [%] | Emax [1] [%] | EC50 [2] [nM] |
| --- | --- | --- | --- | --- |
| CC(=O)c1ccc(-c2ccc3c(n2)Oc2ccccc2C3C(C)(C)C(=O)Nc2nncs2)cc1F (centres unmarked) [Example 229] | 42 | 39.34 |  |  |
| CCCOc1ccc(-c2ccc3c(n2)Oc2ccccc2C3C(C)(C)C(=O)Nc2nncs2)cc1F (centres unmarked) [Example 230] | 550 | 52.33 |  |  |
| CC(C)(C(=O)Nc1nncs1)C1c2ccccc2Oc2nc(-c3ccc(CC(=O)O)cc3)ccc21 (centres unmarked) [Example 231] | 733 | 38.36 |  |  |
| CCNS(=O)(=O)c1ccc(-c2ccc3c(n2)Oc2ccccc2C3C(C)(C)C(=O)Nc2nncs2)cc1 (centres unmarked) [Example 234] | 405 | 27.08 |  |  |
| COC(=O)Cc1ccc(-c2ccc3c(n2)Oc2ccccc2[C@@H]3C(C)(C)C(=O)Nc2nncs2)cc1 [Example 238] |  |  | 62.3 | 601 |
| CC(C)C(O)c1ccc(-c2ccc3c(n2)Oc2ccccc2[C@@H]3C(C)(C)C(=O)Nc2nncs2)cc1 (some centres unmarked) [Example 240] |  |  | 61.7 | 51.9 |
| C[S+]([O-])c1ccc(-c2ccc3c(n2)Oc2ccccc2[C@@H]3C(C)(C)C(=O)Nc2nncs2)cc1 (some centres unmarked) [Example 241] |  |  | 46.8 | 25.3 |
| CC(C)Oc1ccc(-c2ccc3c(n2)Oc2ccccc2[C@@H]3C(C)(C)C(=O)Nc2nccs2)cc1F [Example 246] |  |  | 81.8 | 325 |
| CC(C)(C(=O)Nc1nncs1)[C@H]1c2ccccc2Oc2nc(-c3ccc(C(=O)N4CCCCC4)cc3)ccc21 [Example 247] |  |  | 52.4 | 4.74 |
| CC(C)(C(=O)Nc1nncs1)[C@H]1c2ccccc2Oc2nc(-c3ccc(C(=O)N4CCCCC4)c(F)c3)ccc21 [Example 249] | 11.2 | 42.38 |  |  |
| CN(C)C(=O)c1ccc(-c2ccc3c(n2)Oc2ccccc2[C@@H]3C(C)(C)C(=O)Nc2nncs2)cc1F [Example 250] |  |  | 48.4 | 17.8 |
| CCN(C)C(=O)c1ccc(-c2ccc3c(n2)Oc2ccccc2C3C(C)(C)C(=O)Nc2nncs2)cc1 (centres unmarked) [Example 251] | 17.4 | 54.92 |  |  |
| CC(C)(C(=O)Nc1nncs1)[C@H]1c2ccccc2Oc2nc(-c3ccc(C(=O)N4CCCC4)cc3)ccc21 [Example 252] | 34.6 | 60.94 |  |  |
| CCCN(C)C(=O)c1ccc(-c2ccc3c(n2)Oc2ccccc2C3C(C)(C)C(=O)Nc2nncs2)cc1 (centres unmarked) [Example 254] | 23.6 | 41.80 |  |  |
| CC(C)(C(=O)Nc1nncs1)[C@H]1c2ccccc2Oc2nc(-c3ccc(C(=O)N4CCOCC4)cc3)ccc21 [Example 257] | 12.4 | 63.96 |  |  |
| CC(C)N(C)C(=O)c1ccc(-c2ccc3c(n2)Oc2ccccc2C3C(C)(C)C(=O)Nc2nncs2)cc1 (centres unmarked) [Example 258] | 534 | 40.99 |  |  |
| CCN(CC)C(=O)c1ccc(-c2ccc3c(n2)Oc2ccccc2[C@@H]3C(C)(C)C(=O)Nc2nncs2)cc1F [Example 259] |  |  | 23.3 | 72.2 |
| CN(C)C(=O)c1ccc(-c2ccc3c(n2)Oc2ccccc2[C@@H]3C(C)(C)C(=O)Nc2nncs2)cc1Cl [Example 260] |  |  | 67.3 | 23.1 |
| CCN(CC)C(=O)c1ccc(-c2ccc3c(n2)Oc2ccccc2[C@@H]3C(C)(C)C(=O)Nc2nncs2)cc1Cl [Example 263] |  |  | 58 | 15.4 |
| CC(C)(C(=O)Nc1nncs1)[C@H]1c2ccccc2Oc2nc(-c3ccc(C(=O)N4CCCCC4)c(Cl)c3)ccc21 [Example 264] | 115 | 33.74 |  |  |
| CN(CCC#N)C(=O)c1ccc(-c2ccc3c(n2)Oc2ccccc2[C@@H]3C(C)(C)C(=O)Nc2nncs2)cc1 [Example 267] | 569 | 40.78 |  |  |
| CC(=O)N1CCN(C(=O)c2ccc(-c3ccc4c(n3)Oc3ccccc3[C@@H]4C(C)(C)C(=O)Nc3nncs3)cc2)CC1 [Example 274] |  |  | 62.2 | 234 |
| CC(C)(C(=O)Nc1nncs1)[C@H]1c2ccccc2Oc2nc(-c3ccc(C(=O)N4CCC(F)(F)CC4)cc3)ccc21 [Example 300] |  |  | 61.8 | 14.8 |
| COC1CCN(C(=O)c2ccc(-c3ccc4c(n3)Oc3ccccc3[C@@H]4C(C)(C)C(=O)Nc3nncs3)cc2)CC1 [Example 309] | 41.5 | 34.95 |  |  |
| CC(C)(C(=O)Nc1nncs1)[C@H]1c2ccccc2Oc2nc(-c3ccc(C(=O)N4CCS(=O)(=O)CC4)cc3)ccc21 [Example 310] |  |  | 52.9 | 786 |
| CC(C)(C(=O)Nc1nncs1)[C@H]1c2ccccc2Oc2nc(-c3ccc(C(=O)N4CCC[C@@H]4C(N)=O)cc3)ccc21 [Example 312] |  |  | 73.1 | 267 |

— patent publication US8034940B2, “Modulators of glucocorticoid receptor, AP-1, and/or NF-κB activity and use thereof” (Bristol-Myers Squibb Company, priority 2006, dated 2011)
